# In patent US20060252030A1, “Fabrication of carbohydrate chips by immobilizing unmodified carbohydrates on derivatized solid surfaces, and their uses” (priority 2005, published 2006):
# Experiments:
# [1] = target: T1, Aleuria aurantia (Cy5-AA) lectin (Aleuria aurantia, UniProt P18891); assay: Carbohydrate chip incubated with Cy5-AA, fluorescence scanner; type: binding; settings: carbohydrate on aminooxy or hydrazide chip, FIG. 5(b)
# T1 sequence (P18891 1-313): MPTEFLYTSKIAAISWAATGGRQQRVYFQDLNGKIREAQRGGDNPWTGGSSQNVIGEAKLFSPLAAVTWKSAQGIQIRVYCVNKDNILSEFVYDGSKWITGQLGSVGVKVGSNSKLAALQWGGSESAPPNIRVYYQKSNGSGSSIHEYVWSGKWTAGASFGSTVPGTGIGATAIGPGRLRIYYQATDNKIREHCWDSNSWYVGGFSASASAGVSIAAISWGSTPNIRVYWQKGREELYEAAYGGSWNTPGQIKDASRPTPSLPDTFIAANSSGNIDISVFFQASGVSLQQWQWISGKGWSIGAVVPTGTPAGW
# Procedure: (§1) A solution (0.1 μl˜1 nl) of carbohydrates including mono-, di-, oligo- and polysaccharides in PBS buffer (pH 4.0-5.0) containing 30-50% glycerol is printed on the above-mentioned chip base by using a micropipette or microarrayer. In this process, the concentration of carbohydrates is preferably between 0.1 mM and 50 mM. After completion of printing, the chip is reacted at 40-60° C. for 8 hours or more, and then washed. Then, the chip is immersed in PBS buffer (pH 7.4) containing 0.1% Tween 20 and 1% BSA (bovine serum albumin) for 1 hour. The fabrication of carbohydrate chips is complete by washing the BSA-treated chip with buffer (pH 7.4) containing 0.1% Tween 20 three times for 15 minutes.
# (§2) The fabricated carbohydrate chips are applied for studies on protein-carbohydrate interactions. For these studies, the carbohydrate chips are incubated with non-labeled or fluorophore-labeled proteins in buffer containing 0.1% Tween 20 for 1 hour. Proteins labeled by fluorescent dyes such as Cy3, Cy5 and FITC are commercially available, or can be prepared by reacting proteins with fluorescent dyes. Then, the protein-treated chips are washed with buffer containing 0.1% Tween 20 three times for 10 minutes in order to remove unbound proteins.
# (§3) Carbohydrate chips are used for the rapid assessment of carbohydrate-protein interactions, which are involve in various biological processes and are of importance for the development of novel therapeutics, and for the fast diagnosis of carbohydrate-based diseases such as tumors and pathogens. For this purpose, each solution (sodium phosphate buffer containing 30% glycerol, pH 5.0) of twenty one of mono-, di-, oligo- and polysaccharides listed in Table 1 was printed on the solid support coated by aminooxy or hydrazide groups. The carbohydrate chips prepared from the method described in Example 3 were incubated with Cy3-TV, Cy5-AA and FITC-ConA. According to the fluorescence intensity of the spots in chips after detecting with a fluorescence scanner, TV strongly is bound to N,N′-diacetylchitobiose (13), less strongly to GlcNAc (2) and sialyl Le^x (19), and weakly bound to GalNAc (5), LacNAc (15) and NeuNAcLacNAc (18) [see FIG. 5(a)].
# [2] = test system: Triticum vulgaris (Cy3-TV, also known as wheat germ agglutinin); assay: Carbohydrate chip incubated with Cy3-TV, fluorescence scanner; type: binding; settings: carbohydrate on aminooxy or hydrazide chip, FIG. 5(a)
# Procedure: as §1, §2, §3
# [3] = test system: anti-sialyl Le^x antibody; assay: Carbohydrate chip incubated with anti-sialyl Le^x antibody, fluorescence image; type: binding; settings: FIG. 5(d)
# Procedure: as §1, §2
# Sialyl Le^x is an important biological recognition marker and an interesting target for drug discovery. […]
# ConA = ConA (Canavalia ensiformis, UniProt P02866); assay: Carbohydrate chip incubated with FITC-ConA, fluorescence scanner; type: binding; settings: carbohydrate on aminooxy or hydrazide chip, FIG. 5(c)
# Procedure: as §1, §2
# as §3, with “The carbohydrate chips prepared from the method described in Example 3 were incubated with Cy3-TV, Cy5-AA and FITC-ConA.” left out
# [4] = test system: E. coli ORN178, expressing mannose-binding adhesin on pili; assay: Carbohydrate chip probed with E. coli pre-incubated with propidium iodide; settings: FIG. 5(e)
# Procedure: FIG. 5 is a fluorescent image of carbohydrate chips composed of 21 carbohydrates probed with (a) Cy3-TV, (b) Cy5-AA, (c) FITC-ConA, (d) anti-Sialyl Le^x antibody and (e) E. Coli pre-incubated with propidium iodide (PI).
# Many bacteria including pathogens express specific carbohydrate-binding proteins on pili. The initial attachment of pathogens to host cells through specific carbohydrate-protein interactions confers pathogenic properties. For example, a mannose-binding protein of type 1 fimbriated E. coli is known to cause common urinary tract infection through its binding to glycans on host cells (Connell, H. et al., Proc. Natl. Acad. Sci. USA 1996, 93, 9827). Thus, carbohydrate chips were also used to detect pathogens for diagnosis. E. coli ORN178, expressing mannose-binding adhesin on pili, binds to spots containing mannose, mannobiose and mannan [see FIG. 5(e)].
binding of TV to immobilized carbohydrate (fluorescence intensity of the spots) [2],Compound,binding of AA to immobilized carbohydrate (fluorescence intensity of the spots) [1],further results
–,"C[C@@H]1O[C@@H](O[C@H]2[C@H](O[C@@H]3O[C@H](CO)[C@H](O)[C@H](O)[C@H]3O)[C@@H](CO)OC(O)[C@@H]2O)[C@@H](O)[C@H](O)[C@@H]1O (stereo partly shown) [compound 17, Fucα1,3(Galβ1,4)Glc]",strongly bound,–
–,"CC(=O)N[C@H]1[C@H](O[C@H]2[C@@H](O)[C@@H](CO)O[C@@H](O[C@H]3[C@H](O)[C@@H](O)C(O)O[C@@H]3CO)[C@@H]2O)O[C@H](CO)[C@@H](O[C@@H]2O[C@@H](C)[C@@H](O)[C@@H](O)[C@@H]2O)[C@@H]1O[C@@H]1O[C@H](CO)[C@H](O)[C@H](O)[C@H]1O[C@@H]1O[C@@H](C)[C@@H](O)[C@@H](O)[C@@H]1O (stereo partly shown) [compound 20, Fucα1,2Galβ1,3(Fucα1,4)GlcNAcβ1,3Galβ1,4Glc]",strongly bound,–
less strongly,"CC(=O)N[C@H]1C(O)O[C@H](CO)[C@@H](O)[C@@H]1O (stereo partly shown) [compound 2, N-acetylglucosamine]",–,–
weakly bound,"CC(=O)N[C@H]1[C@H]([C@H](O)[C@H](O)CO)O[C@@](O[C@H]2[C@@H](O)[C@@H](CO)O[C@@H](O[C@H]3[C@H](O)[C@@H](NC(C)=O)C(O)O[C@@H]3CO)[C@@H]2O)(C(=O)O)C[C@@H]1O (stereo partly shown) [compound 18, NeuNAcα2,3Galβ1,4GlcNAc]",–,–
strongly,"CC(=O)N[C@H]1[C@H](O[C@H]2[C@H](O)[C@@H](NC(C)=O)C(O)O[C@@H]2CO)O[C@H](CO)[C@@H](O)[C@@H]1O (stereo partly shown) [compound 13, N,N′-diacetylchitobiose]",–,–
weakly bound,"CC(=O)N[C@H]1C(O)O[C@H](CO)[C@H](O)[C@@H]1O (stereo partly shown) [compound 5, N-acetylgalactosamine]",–,–
–,"OC[C@H]1O[C@H](O[C@H]2[C@H](O)[C@@H](O)C(O)O[C@@H]2CO)[C@H](O)[C@@H](O)[C@@H]1O (mixture of isomers) [compound 11, Maltose]",–,binding of ConA to immobilized carbohydrate (fluorescence intensity of the spots) (ConA): very weak binding
–,Mannan [compound 21],–,binding of E. coli ORN178 to carbohydrate spots [4]: binds; binding of ConA to immobilized carbohydrate (fluorescence intensity of the spots) (ConA): strong binding
–,"Manα1,6Man [compound 16]",–,binding of E. coli ORN178 to carbohydrate spots [4]: binds; binding of ConA to immobilized carbohydrate (fluorescence intensity of the spots) (ConA): less strong binding
weakly bound,"Galβ1,4GlcNac [compound 15]",–,–
–,"C[C@H](O)[C@@H](O)[C@@H](O)[C@H](O)C=O [compound 8, fucose]",strongly bound,–

Compound,binding of TV to immobilized carbohydrate (fluorescence intensity of the spots) [2],binding of AA to immobilized carbohydrate (fluorescence intensity of the spots) [1],further results
"CC(=O)N[C@H]1[C@H]([C@H](O)[C@H](O)CO)O[C@@](O[C@H]2[C@@H](O)[C@@H](CO)O[C@@H](O[C@H]3[C@H](O[C@@H]4O[C@@H](C)[C@@H](O)[C@@H](O)[C@@H]4O)[C@@H](NC(C)=O)C(O)O[C@@H]3CO)[C@@H]2O)(C(=O)O)C[C@@H]1O (stereo partly shown) [compound 19, Sialyl Le^x]",less strongly,very weakly bound,recognition by anti-sialyl Le^x antibody (fluorescence image of the chip) [3]: selectively recognized
